Laboratory results from paper PMC4863635, “Radicicol-Mediated Inhibition of Topoisomerase VIB-VIA Activity of the Human Malaria Parasite Plasmodium falciparum” (mSphere, 2016).

How the values were obtained:
[1] = biological target: T1, PfTopoVIB (measured as PfTopoVIB-VIA complex) (Plasmodium falciparum, UniProt Q8I5N7+Q8ID53); assay: kDNA decatenation gel assay with yeast cell extract expressing PfTopoVIB-VIA; format: biochemical
T1 construct: gene PF3D7_1365600; full-length Myc-tagged PfTopoVIB co-expressed with Flag-tagged PfTopoVIA in S. cerevisiae, cell-free extract; with PfTopoVIA (PF3D7_1217100.1)

[2] = biological target: T2, PfTopoVIB (topoisomerase VIB subunit of PfTopoVI) (Plasmodium falciparum, UniProt Q8ID53); assay: as above; format: biochemical
T2 construct: gene PF3D7_1365600; full-length Myc-tagged PfTopoVIB co-expressed with Flag-tagged PfTopoVIA in S. cerevisiae, cell-free extract; with PfTopoVIA (PF3D7_1217100.1)
T2 sequence (Q8ID53 1-561): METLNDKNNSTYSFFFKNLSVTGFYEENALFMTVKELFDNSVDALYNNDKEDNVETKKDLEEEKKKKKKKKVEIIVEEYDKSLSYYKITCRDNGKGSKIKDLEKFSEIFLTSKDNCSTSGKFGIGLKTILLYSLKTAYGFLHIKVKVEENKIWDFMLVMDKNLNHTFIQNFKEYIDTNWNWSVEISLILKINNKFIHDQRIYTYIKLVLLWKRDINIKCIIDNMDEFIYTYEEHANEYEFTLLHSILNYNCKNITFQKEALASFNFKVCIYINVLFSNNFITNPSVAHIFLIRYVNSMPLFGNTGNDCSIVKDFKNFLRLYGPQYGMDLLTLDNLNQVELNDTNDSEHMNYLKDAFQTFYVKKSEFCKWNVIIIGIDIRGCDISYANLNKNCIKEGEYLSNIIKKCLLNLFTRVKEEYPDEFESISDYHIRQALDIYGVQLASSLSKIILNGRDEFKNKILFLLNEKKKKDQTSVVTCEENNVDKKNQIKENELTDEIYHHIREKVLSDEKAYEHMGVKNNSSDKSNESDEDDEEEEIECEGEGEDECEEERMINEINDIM
T2 sequence (Q8I5N7 1-327 partner): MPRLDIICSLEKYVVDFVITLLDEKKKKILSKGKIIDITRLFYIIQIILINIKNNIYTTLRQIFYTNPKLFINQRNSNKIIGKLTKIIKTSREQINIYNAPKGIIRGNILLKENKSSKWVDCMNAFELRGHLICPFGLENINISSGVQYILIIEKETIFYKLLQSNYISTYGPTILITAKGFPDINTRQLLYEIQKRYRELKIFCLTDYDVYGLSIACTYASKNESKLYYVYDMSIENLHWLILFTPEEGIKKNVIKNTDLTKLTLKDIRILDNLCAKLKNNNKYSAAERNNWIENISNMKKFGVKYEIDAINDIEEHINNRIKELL

SMILES	inhibition at 10 µM [1] [%]	IC50 [2] [µM]
COc1cc([C@@H]2c3cc4c(cc3[C@@H](O[C@@H]3O[C@@H]5CO[C@@H](C)O[C@H]5[C@H](O)[C@H]3O)[C@H]3COC(=O)[C@H]23)OCO4)cc(OC)c1O [etoposide]	> 80	
C[C@@H]1C[C@H]2O[C@@H]2/C=C\C=C\C(=O)Cc2c(Cl)c(O)cc(O)c2C(=O)O1 [radicicol]		~80
